# According to patent US12144814B2, “Compositions containing paraxanthine and beta-hydroxybutyrate or precursor for increasing neurological and physiological performance” (priority 2023, dated 2024):
# How the values were obtained:
# [1] = tested on: mice; assay: Cook's Pole Climbing Test on mice; format: in vivo
# [2] = tested on: mice; assay: Forced Swim Test on mice; format: in vivo
# [3] = Clinical Stroop Test study; format: in vivo; conditions: paraxanthine 200 mg; BHB 5 g; paraxanthine 200 mg with BHB 5 g; 6-week period; FIGS. 15A-15C
# Source text: The Stroop effect refers to the delay in reaction time between congruent and incongruent stimuli. […] When paired with paraxanthine, the combination provides a synergistic improvement in mental acuity.
# [4] = Clinical Resting Energy Expenditure study; format: in vivo; conditions: paraxanthine 100 mg or 300 mg; BHB 5 g; paraxanthine 100 mg or 300 mg with BHB 5 g; 180-day period
# Description: FIGS. 16A-16B show expected results of a clinical Resting Energy Expenditure study, where participants are supplemented with paraxanthine alone (100 mg or 300 mg), BHB alone (5 g), or paraxanthine (100 mg or 300 mg) in combination with BHB (5 g) over a 180-day period. […] Because of the presence of the BHB ketone body component, such increased metabolic rate is also more likely to occur within the context of ketogenic state, where fat is principally used as the caloric energy source for the increased resting metabolic rate.
# [5] = Age-related cognitive decline study; format: in vivo; conditions: BHB 5 g
# [6] = tested on: healthy young adults; assay: Vigilance Task Test; format: in vivo; conditions: 200 mg paraxanthine; 5 g BHB; 200 mg paraxanthine and 5 g BHB; baseline and 1-6 hours after supplementation; FIG. 6
# Source text: The Vigilance Task Test is another test routinely used in the field, and is used to evaluate a participants ability to sustain attention. The Vigilance Task Test is a sustained attention, reaction timed task test that measures the speed with which participants respond to a visual stimulus. The subjects respond to visual stimuli (e.g., a red dot) by pressing a key as soon as it appears on the computer screen. The light turns on at random, e.g., roughly every couple of seconds or so during the test. The speed of response is measured. Due to the random nature of the test, there is no learning effect. Mean response time is recorded. When running each such tests, subjects are given either paraxanthine+BHB, paraxanthine alone, BHB alone, or a placebo. The dosage amounts are 200 mg paraxanthine and 5 g of BHB, 200 mg of paraxanthine alone, 5 g of BHB alone, or a placebo. The testing is conducted under double blind, placebo controlled conditions. The subjects include 13 healthy young adults (10 male, 3 female), aged 24±5 years; height 170.0±11.8 cm; weight 72.9±19.3 kg.
# [7] = tested on: healthy young adults; assay: Go/No Go Attention and Inhibitory Control Test; format: in vivo; conditions: 200 mg paraxanthine; 5 g BHB; 200 mg paraxanthine and 5 g BHB; baseline and 1-6 hours after supplementation; FIG. 4
# Source text: Attention and inhibitory control can be measured using a Go/No Go Test, which is used to measure a participant's capacity for sustained attention and response control. The Go/No Go Test is routinely used in the field, and will be familiar to those of skill in the art. In the Go/No Go Test, participants watch a 2×2 array of squares, and then there is a successive presentation of letters (e.g., either P or R) and the participant responds to a target letter by pressing the corresponding button on a keyboard. The single letter (P or R) is presented in one of the 4 squares for 500 milliseconds, with 1500 milliseconds between subsequent stimuli. For the P-Go condition, participants are asked to press the P key in response to the letter P, and abstain from responding to the letter R. For the R-reversal condition, the participants are asked to respond to the letter R, and abstain when seeing the letter P. Mean response time, as well as percentage of correct answers are recorded. When running each such tests, subjects are given either paraxanthine+BHB, paraxanthine alone, BHB alone, or a placebo. The dosage amounts are 200 mg paraxanthine and 5 g of BHB, 200 mg of paraxanthine alone, 5 g of BHB alone, or a placebo. The testing is conducted under double blind, placebo controlled conditions. […]
# [8] = cited from earlier work
# [9] = cited from earlier work; for Total plasma clearance: in vivo; for half-life: elimination half-life, FIG. 3
# [10] = tested on: dopaminergic neurons; conditions: cited from earlier work
# [11] = elevated doses; cited from earlier work
# [12] = metabolite of caffeine, FIG. 2; cited from earlier work
smiles,measurement,setting,value
C[N+](C)(C)CCOP(=O)([O-])OC[C@H](O)CO [Alpha-GPC],No. of Climbing,[1]; Alpha-GPC 200 mg,5.5
same,Duration of Immobility,[2]; Alpha-GPC 200 mg,9.38 min
same,Duration of mobility/active swimming,[2]; Alpha-GPC 200 mg,20.63 min
"CC(O)CC(=O)O (stereo not drawn) [BHB, beta-hydroxybutyrate]",Stroop test number of correct answers,[3],little if any benefit
same,Stroop test reaction speed,[3],little if any benefit
same,resting energy expenditure,[4],only a minor benefit
same,Acetylcholine,[5],58 U/mL
same,BDNF,[5],775 pg/mL
same,Catalase,[5],28 U/mL
same,Dopamine,[5],475 ng/L
same,Escape Latency,[5],50 s
same,Glutathione,[5],22 µg/mL
same,Vigilance Task Test average response time,[6],significantly slower reaction times
same,No. of Climbing,[1]; BHB 5 g,6
same,Duration of Immobility,[2]; BHB 5 g,9.5 min
same,Duration of mobility/active swimming,[2]; BHB 5 g,20 min
same,Go/No Go Test correct responses,[7],decrease in correct answers over time
"CCNC(=O)CC[C@H](N)C(=O)O [L-Theanine, L-theanine]",No. of Climbing,[1]; L-Theanine 50 mg,4.38
same,Duration of Immobility,[2]; L-Theanine 50 mg,8.74 min
same,Duration of mobility/active swimming,[2]; L-Theanine 50 mg,21.26 min
"NCCS(=O)(=O)O [Taurine, taurine]",No. of Climbing,[1]; Taurine 500 mg,6.5
same,Duration of Immobility,[2]; Taurine 500 mg,9.61 min
same,Duration of mobility/active swimming,[2]; Taurine 500 mg,20.39 min
CC(O)CC(=O)O (stereo not drawn) [beta-hydroxybutyric acid],pKa,[8],4.70
Cn1c(=O)c2c(ncn2C)n(C)c1=O [caffeine],Total plasma clearance,[9],2.07 mL/min/kg
same,protection against neurodegeneration and the loss of synaptic function,[10],marginal protection
NC(=O)C[S+]([O-])C(c1ccccc1)c1ccccc1 (centres unmarked) [modafinil],hypothermia and reduced locomotor activity,[11],induce hypothermia and reduced locomotor activity
Cn1cnc2c1c(=O)[nH]c(=O)n2C [theobromine],half-life,[9],7.2 h
same,Total plasma clearance,[9],1.2 mL/min/kg
Cn1c(=O)c2[nH]cnc2n(C)c1=O [theophylline],half-life,[9],6.2 h
same,Total plasma clearance,[9],0.93 mL/min/kg
same,share of the methylxanthine metabolic by-products,[12],4%
